Results: PMC5075699
Values joined by “and” are separate entries in the source; they are usually repeats but may differ in a detail not shown here. Identical values can stand only once.

How the values were obtained:
nontransgenic mice [1] = experiment: Pilot Morris water maze #1 (spatial learning and memory); conditions: for %Target Quadrant (percent time spent in target quadrant) / Crossing Frequency (number of platform crossings) / Latency to Target / Crossing Frequency: individual mice; for Distance / Latency: Fig 2A; for Crossing Frequency: Fig 2C
nontransgenic mice [2] = experiment: Contextual fear conditioning; conditions: ISRIB 2.5mpk, individual mice
[3] = system: prion disease mouse models; conditions: in vivo, ip, 0.25 mg/kg; cited from earlier work
[4] = 24-hour probe trial (Fig 2B), 0.1mpk
[5] = 24-hour probe trial (Fig 2B), 0.25mpk
[6] = 72-hour probe trial (Fig 2C), 0.1mpk
[7] = 72-hour probe trial (Fig 2C), 0.25mpk
[8] = ISRIB 0.1mpk, Trial 1, individual mice
[9] = ISRIB 0.1mpk, Trial 2, individual mice
[10] = ISRIB 0.1mpk, Trial 3, individual mice
[11] = ISRIB 0.1mpk, Trial 4, individual mice
[12] = ISRIB 0.25mpk, Trial 1, individual mice
[13] = ISRIB 0.25mpk, Trial 2, individual mice
[14] = ISRIB 0.25mpk, Trial 3, individual mice

O=C(COc1ccc(Cl)cc1)NC1CCC(NC(=O)COc2ccc(Cl)cc2)CC1 (stereo not shown) [ISRIB]
%Target Quadrant (percent time spent in target quadrant) (nontransgenic mice [1]; [4]): 44.0932% and 16.8608% and 27.6206% and 29.7282% and 34.8863% and 38.4914% and 18.802% and 29.5064% and 21.1869% and 54.6312% and 23.8491% and 29.5618% and 18.2474% and 16.6944%
Crossing Frequency (number of platform crossings) (nontransgenic mice [1]; [4]): 3 and 1 and 0 and 5 and 2
Latency to Target (nontransgenic mice [1]; [4]): 15.4154 and 14.3143 and 9.776 and 14.281 and 10.9109 and 23.8572 and 8.075 and 28.4618 and 6.173 and 49.9833 and 54.0207 and 5.439
%Target Quadrant (percent time spent in target quadrant) (nontransgenic mice [1]; [5]): 41.7083% and 28.508% and 15.9179% and 23.35% and 35.33% and 30.3383% and 37.9922% and 36.7721% and 24.4038% and 36.5502% and 36.6057% and 35.6628% and 17.3045% and 11.2035% and 27.787%
Crossing Frequency (number of platform crossings) (nontransgenic mice [1]; [5]): 4 and 1 and 2 and 3 and 5
Latency to Target (nontransgenic mice [1]; [5]): 12.5459 and 7.174 and 15.2486 and 19.2526 and 12.7795 and 12.9463 and 6.24 and 43.31 and 13.5135 and 13.6804 and 10.4438 and 8.842 and 6.84 and 29.0624 and 19.3861
%Target Quadrant (percent time spent in target quadrant) (nontransgenic mice [1]; [6]): 24.3483% and 20.0222% and 43.7604% and 8.4304% and 14.8641% and 36.883% and 28.6744% and 19.3012% and 32.6678% and 33.9434% and 13.6439% and 27.6206% and 18.9684% and 18.4692% and 26.345%
Latency to Target (nontransgenic mice [1]; [6]): 47.2473 and 25.4922 and 4.571 and 12.4458 and 24.0908 and 40.0734 and 23.29 and 28.6286 and 42.042 and 38.3383 and 5.506 and 17.9513
%Target Quadrant (percent time spent in target quadrant) (nontransgenic mice [1]; [7]): 45.4798% and 27.066% and 23.0727% and 47.7537% and 35.4409% and 31.5031% and 40.9318% and 46.4781% and 25.5685% and 36.6057% and 27.898% and 43.3167% and 22.3516% and 17.7482% and 21.6861%
Latency to Target (nontransgenic mice [1]; [7]): 9.843 and 17.3507 and 7.741 and 43.2432 and 4.972 and 20.1201 and 23.7237 and 4.638 and 6.24 and 11.4448 and 27.027 and 19.4194
latency to target and crossing frequency vs vehicle (nontransgenic mice [1]; 72-hour probe trial, one-way ANOVA): no significant improvement
Distance (nontransgenic mice [1]; [8]): 2362.83 and 2250.62 and 2496.09 and 1947.39 and 1168.96 and 2236.97 and 2411.54 and 2035.59 and 1921.1 and 2456.98 and 2337.83 and 2068.76 and 2366.51 and 2250.12 and 2342.92
Latency (nontransgenic mice [1]; [8]): 120.12 and 115.716 and 120.153 (11×) and 70.7374 and 112.312
Distance (nontransgenic mice [1]; [9]): 2488.72 and 412.271 and 2629.01 and 582.153 and 2113.12 and 2245.93 and 2084.31 and 208.443 and 322.031 and 2551.61 and 1958.47 and 2254.18 and 2157.45 and 1870.02 and 1903.66
Latency (nontransgenic mice [1]; [9]): 120.153 (7×) and 20.1868 and 53.2199 and 101.501 and 119.653 and 16.016 and 18.5852 and 101.535 and 100.467
Distance (nontransgenic mice [1]; [10]): 96.0203 and 1493.55 and 655.096 and 2193.26 and 428.034 and 2346.49 and 668.274 and 682.153 and 2384.94 and 600.87 and 1974.12 and 1289.33 and 2210.56 and 216.348 and 165.502
Latency (nontransgenic mice [1]; [10]): 7.307 and 72.6059 and 29.1291 and 120.153 (6×) and 25.7925 and 43.31 and 33.8338 and 32.666 and 11.8785 and 10.01
Distance (nontransgenic mice [1]; [11]): 1924.82 and 804.911 and 451.376 and 688.986 and 824.577 and 691.966 and 1226.74 and 1849.83 and 378.165 and 840.629
Latency (nontransgenic mice [1]; [11]): 96.0961 and 35.7357 and 20.6873 and 46.6467 and 38.0714 and 35.4354 and 120.153 and 97.4308 and 17.4174 and 44.2776
Crossing Frequency (nontransgenic mice [1]; ISRIB 0.1mpk): 1 and 2 and 5 and 0 and 4 and 3
Distance (nontransgenic mice [1]; [12]): 2065.19 and 2495.79 and 2100.99 and 2299.57 and 1083.65 and 2015.54 and 1762.54 and 1784.58 and 1973.36 and 2419.28 and 2296.21 and 1746.93 and 2593.71 and 2297.94 and 2156.55
Latency (nontransgenic mice [1]; [12]): 120.153 (10×) and 56.5566 and 93.994 and 110.677 and 97.7644 and 92.3257
Distance (nontransgenic mice [1]; [13]): 2252.57 and 966.538 and 2215.71 and 2563.77 and 445.101 and 2147.24 and 1156.33 and 1018.37 and 2302.03 and 2270.34 and 1964.61 and 2179.88 and 2576.82 and 1685.38 and 1279.26
Latency (nontransgenic mice [1]; [13]): 119.753 and 49.4828 and 119.686 and 120.153 (6×) and 23.4902 and 55.5555 and 58.6587 and 114.581 and 80.8141 and 66.8669
Distance (nontransgenic mice [1]; [14]): 2747.59 and 190.327 and 1538.1 and 2351.74 and 241.5 and 531.856 and 1005.53 and 471.756 and 1003.73 and 604.685 and 1640.73 and 351.494 and 2299.54 and 202.419 and 1735.08
Latency (nontransgenic mice [1]; [14]): 120.153 (5×) and 12.6126 and 98.365 and 13.9807 and 31.4314 and 77.5108 and 25.1251 and 47.047 and 26.9937 and 17.4174 and 12.5459
Crossing Frequency (nontransgenic mice [1]; ISRIB 0.25mpk): 6 and 2 and 0 and 3 and 1 and 7
learning rates to find the hidden platform (latency or distance) vs vehicle (nontransgenic mice [1]; MWM #1 training, 0.1 and 0.25 mpk): No differences in learning rates
Post-Shock (nontransgenic mice [2]; Fig 3A): 6.61 and 2.22 and 0 and 2.28 and 2.39 and 18.72 and 31.39 and 15.72 and 15.83 and 8.22 and 17.11 and 7.56 and 7 and 11.33 and 13.11 and 8.28 and 20.33 and 19.33 and 29.44 and 32.33 and 27.56
Pre-Shock (nontransgenic mice [2]; Fig 3A): 1.67 and 0 and 0.97 and 2.33 and 0.86 and 33.64 and 1.83 and 1.44 and 1.08
1st 4 min context (nontransgenic mice [2]; Fig 3B): 11.1 and 4.75 and 30.01 and 15.49 and 4.44 and 18.51 and 26.85 and 38.13 and 45.92 and 9.61 and 2.13 and 12.76 and 6.75 and 15.99 and 18.96 and 31.54 and 27.17 and 21.38 and 27.25 and 14.79 and 16.25 and 41.57 and 18.94 and 33.54 and 25.69 and 47.14 and 19.89 and 27.42 and 56.35 and 28.89
2nd 4 min context (nontransgenic mice [2]; Fig 3B): 31.29 and 5.25 and 33.13 and 30.94 and 0 and 19.46 and 29.43 and 31.87 and 22.86 and 6.96 and 10.43 and 9.1 and 5.42 and 17.46 and 22.21 and 24.07 and 43.26 and 31.68 and 31.22 and 19.13 and 25.14 and 47.79 and 41.86 and 24.76 and 22.15 and 38.53 and 12.88 and 14.39 and 38.49 and 10.29
8 min context (nontransgenic mice [2]; Fig 3B): 21.54 and 5 and 31.79 and 23.22 and 2.22 and 18.99 and 28.14 and 35.24 and 34.55 and 8.28 and 6.28 and 10.93 and 6.08 and 16.72 and 20.58 and 27.86 and 35.22 and 26.54 and 29.26 and 16.96 and 20.81 and 44.68 and 30.75 and 29.15 and 24.19 and 43.22 and 16.38 and 20.9 and 47.8 and 19.59
extension of survival [3]: approximately 1 week
